The values below come from PMC7980952 (Clinical cancer research : an official journal of the …, 2019).

Entries after “also recorded” stand apart in the source; their conditions may differ. Where two headings read alike, the source gives them in different places.

One data set deals with melanoma. The note with it: ref Long et al. 2018, cited from earlier work.
Data set [1] is described as follows: Phase Ib safety assessments: adverse events. The note with it: in combination with atezolizumab.
The subject of a further data set is solid tumors. As to conditions: ref Nayak et al. 2018, cited from earlier work.
Data set [2] is described as follows: Navoximod plasma pharmacokinetics. Format: in vivo, human. As to conditions: for PK profile (linearity, dose proportionality): 50–1000 mg BID oral, with atezolizumab; for Tmax: human, plasma, po, 50–1000 mg BID.
The next data set deals with IDO1. Description: Plasma Kyn as peripheral biomarker of IDO1 activity. It counts as in vivo, human.
The subject of a further data set is preclinical tumor models. The note with it: combination with anti-PD-L1 vs single agents; ref Spahn et al. 2015; cited from earlier work.
The conditions of data set [3]: in vivo.
For data set [4], the system named is locally advanced or metastatic solid tumors. Briefly: Tumor response by investigators per RECIST v1.1. Format: in vivo, human. The note with it: with atezolizumab; for ORR in IDO1 0 patients / ORR in PDL1 0 patients / ORR in PDL1 IHC 1/2/3 patients / ORR in IDO1 IHC 1/2/3 patients / ORR in all patients: expansion.
A further data set concerns IDO. As to conditions: ref Siu et al. 2017; cited from earlier work.
Setting [5] is: Phase 1a, 22 patients with solid tumors.

Consider `NS(=O)(=O)NCCNc1nonc1C(=NO)Nc1ccc(F)c(Br)c1` [epacadostat], for which the mPFS in the data set with melanoma (epacadostat in combination with pembrolizumab) is given as 4.7 mo.
By Tmax is commonly meant the time from dosing to the highest level. For the compound `O[C@H](C[C@H]1c2c(F)cccc2-c2cncn21)[C@H]1CC[C@H](O)CC1` [Navoximod], the MTD result in data set [1] is listed as “not reached; also recorded: not identified; also recorded: No MTD was defined”. In the data set on solid tumors (setting [5]), the “Clinical activity as a single agent” value is “limited clinical activity”. Besides, the “Tolerability as a single agent” value in the data set on solid tumors (setting [5]) is “generally well-tolerated”. In addition, in the data set with solid tumors, the “Hepatic adverse events, single agent” value is “Hepatic adverse events had been reported”. Besides, the “PK profile (linearity, dose proportionality)” value was “linear PK profile; also recorded: dose-proportional and linear PK” in [2]; “dose-proportional and linear PK profile” in data set [2] (listed as navoximod). The Tmax in [2] (Tmax range) is 0.25 to 4 h; in data set [2] (median Tmax) it was roughly 1 h. Besides, the “PK in combination with atezolizumab compared with single agent” value in data set [2] (in vivo) is “consistent with single-agent PK observations”. The “Mean change in plasma Kyn from the pre-dose baseline” value in the data set on IDO1 (patients receiving at least 200 mg navoximod) is “decreased at all post-dose timepoints beyond 1 hour”. In the data set on IDO1 (relative to Cycle 1 Day 1 pre-dose levels), the “Change in plasma Kyn” value is recorded as “generally decreased with increasing doses”. Moreover, the “Activation of intratumoral CD8+ T cells and tumor growth inhibition” value in the data set on preclinical tumor models is “more effectively activates intratumoral CD8+ T cells and inhibits tumor growth compared to either single agent alone”. Besides, the “Chromaturia, treatment-related AE” value in data set [3] (human) amounted to 20%. Also, in data set [3] (human), the “Discontinuations due to treatment related AEs” value amounted to 9%. Besides, the “Fatigue, treatment-related AE” value in data set [3] (human) is 22%. The “Grade ≥ 3 treatment-related AEs” value in [3] (human) was 22%. Besides, in [3] (human), the “Grade ≥ 3 treatment-related rash” value came out at 9%. For the same compound, in data set [3] (human), the “Patients who discontinued treatment due to rash” value worked out at 4%. Moreover, in data set [3] (human), the “Pink colored urine (chromaturia)” value is given as “up to 20%”. Also, in data set [3] (human), the Rash overall entry is “around 20%”. For the same compound, the “Rash, treatment-related AE” value in [3] (human) turned out to be 22%. Further, the “Treatment related serious AEs” value in data set [3] (human) was 10%. Besides, in data set [3], the “Relationship between dose and incidence or severity of AEs” value was “no clear relationship”. In addition, the “Tolerability of the combination” value in data set [3] was “generally well-tolerated”. In data set [4] (dose escalation, all patients (n=66)), the “Partial response (PR), best overall response” value is given as 9%. The “ORR in IDO1 0 patients” value in data set [4] (All Patients, n=19) is 0 (0%) Responders (%); in [4] (Biopsy A (CIT naïve), n=3), 0 (0%) Responders (%); in data set [4] (Biopsy B (CIT naïve), n=4), 0 (0%) Responders (%); in data set [4] (NSCLC (CIT naïve), n=8), 0 (0%) Responders (%); in [4] (NSCLC (relapsed), n=1), 0 (0%) Responders (%); in [4] (RCC (CIT naïve), n=0) it was 0 (0%) Responders (%). Moreover, the “ORR in IDO1 0 patients” value is 0 (0%) Responders (%) in data set [4] (TNBC (CIT naïve), n=3) and 0 (0%) Responders (%) in data set [4] (UBC (CIT naïve), n=0). The “ORR in PDL1 0 patients” value in [4] (All Patients, n=27) was 0 (0%) Responders (%); in [4] (Biopsy A (CIT naïve), n=5), 0 (0%) Responders (%); in [4] (Biopsy B (CIT naïve), n=4) it was 0 (0%) Responders (%); in [4] (NSCLC (CIT naïve), n=11), 0 (0%) Responders (%); in data set [4] (NSCLC (relapsed), n=4) it was 0 (0%) Responders (%); in [4] (RCC (CIT naïve), n=0), 0 (0%) Responders (%). Further, the “ORR in PDL1 0 patients” value in data set [4] (TNBC (CIT naïve), n=3) was 0 (0%) Responders (%); in [4] (UBC (CIT naïve), n=0), 0 (0%) Responders (%). Further, the “ORR in PDL1 IHC 1/2/3 patients” value is on record as 9 (15%) Responders (%) in data set [4] (All Patients, n=60); 0 (0%) Responders (%) in data set [4] (Biopsy A (CIT naïve), n=6); 1 (12%) Responders (%) in data set [4] (Biopsy B (CIT naïve), n=8); 2 (14%) Responders (%) in data set [4] (NSCLC (CIT naïve), n=14); 0 (0%) Responders (%) in [4] (NSCLC (relapsed), n=11); 3 (43%) Responders (%) in [4] (RCC (CIT naïve), n=7). For the same compound, the “ORR in PDL1 IHC 1/2/3 patients” value is 1 (12%) Responders (%) in [4] (TNBC (CIT naïve), n=8) and 2 (33%) Responders (%) in data set [4] (UBC (CIT naïve), n=6). Besides, the “ORR in IDO1 IHC 1/2/3 patients” value in data set [4] (All Patients, n=68) was 9 (13%) Responders (%); in data set [4] (Biopsy A (CIT naïve), n=8), 0 (0%) Responders (%); in [4] (Biopsy B (CIT naïve), n=8) it was 1 (12%) Responders (%); in [4] (NSCLC (CIT naïve), n=17) it was 2 (12%) Responders (%); in [4] (NSCLC (relapsed), n=14), 0 (0%) Responders (%); in [4] (RCC (CIT naïve), n=7), 3 (43%) Responders (%). The “ORR in IDO1 IHC 1/2/3 patients” value is on record as 1 (12%) Responders (%) in [4] (TNBC (CIT naïve), n=8) and 2 (33%) Responders (%) in data set [4] (UBC (CIT naïve), n=6). Further, the “ORR in all patients” value in data set [4] (All Patients, n=91) is reported as 10 (11%) Responders (%); in [4] (Biopsy A (CIT naïve), n=11), 0 (0%) Responders (%); in [4] (Biopsy B (CIT naïve), n=12) it was 1 (8%) Responders (%); in data set [4] (NSCLC (CIT naïve), n=26), 2 (8%) Responders (%); in [4] (NSCLC (relapsed), n=16), 0 (0%) Responders (%); in [4] (RCC (CIT naïve), n=7) it was 3 (43%) Responders (%). Further, the “ORR in all patients” value in data set [4] (TNBC (CIT naïve), n=11) was 1 (9%) Responders (%); in data set [4] (UBC (CIT naïve), n=8) it was 3 (38%) Responders (%).
In the case of pembrolizumab, in the data set on melanoma (pembrolizumab monotherapy), the mPFS was 4.9 mo.
Take `C[C@@H](C(=O)Nc1ccc(Cl)cc1)C1CCC(c2ccnc3ccc(F)cc23)CC1` (some centres unmarked) [BMS-986205]: in the data set on IDO, the “In vitro potency compared with epacadostat and navoximod” value is on record as “greater in vitro potency”.
